Data published in patent US12257339B2, “Phytocomplex and extract of a meristematic cell line selected from a plant belonging to the genus Rosa” (AETHERA BIOTECH S.R.L., priority 2019, dated 2025).

Assay: Antioxidant activity, DPPH method
Format: biochemical
Conditions: methanol extract/solution; absorbance at 517 nm
Description: The assay of antioxidant activity was performed using the DPPH method. The assay with the DPPH (2,2-diphenyl-1-picryl-hydrazyl) radical has the aim of evaluating, in vitro, the antioxidant activity of the line of Rosa […] vis-à-vis a stained stable radical and measuring its disappearance by spectrophotometry. […] The Rc-F2P homogenate of meristematic cells of Rosa […] extracted in methanol and placed in an ultrasonic bath for 20 minutes. Various aliquots of solution were taken and they were added to a same amount of DPPH solution and brought to volume with methanol, so as to evaluate the antioxidant capacity of the sample at different concentrations. The results are expressed as EC50, i.e. as the concentration of the Rc-F2P phytocomplex capable of decreasing the initial absorbance of the radical at 517 nm by 50%. The result is then compared with that obtained from a methanol solution of ascorbic acid, used as a reference. The lower the EC50, the greater the antioxidant capacity.

## O=C1O[C@H]([C@@H](O)CO)C(O)=C1O [Ascorbic acid, ascorbic acid]
  EC50 (concentration decreasing the initial absorbance of the DPPH radical at 517 nm by 50%): 3.19 ± 0.16 µg/mL
